In patent US20120071475A1, “UREA DERIVATIVES HAVING PI3K-INHIBITING ACTIVITY” (SHIONOGI & CO., LTD., priority 2009, published 2012):

Assays:
PI3Kγ [1] = molecular target: T1, PI3Kγ (Homo sapiens, UniProt P48736); assay: PI3Kγ inhibitory activity (PI3-kinase HTRF assay, inhibition ratio); assay type: biochemical; settings: 0.5 h, compound at 10 μmol/L; read-out: PI3Kg Inhibition Ratio % (10 μM)
Summary of the method: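 Compound at 10 μmol/L preincubated 10 min with PI3Kγ and PIP2 substrate, then reacted with ATP for 30 minutes at room temperature; the compound, substrate and ATP figures as printed (40 μmol/L each) are solution concentrations. HTRF 665/620 nm ratio read after 18 hours. Inhibition ratio calculated against no-compound (100%) and no-enzyme (0%) controls.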

AKT phosphorylation = AKT phosphorylation inhibitory activity in MCP-1 stimulated THP-1 cells (sandwich ELISA); assay type: cell-based, Human; settings: Homo sapiens, compound at 1 μmol/L, MCP-1 stimulation, read-out: AKT phosphorylation inhibition ratio
Experimental: (1) The AKT phosphorylation inhibitory activity of a compound was evaluated according to the following procedure. (2) Human monocyte-like cell line THP-1 was washed with RPMI-1640 media, incubated in the presence of 5% CO2 at 37° C. for 3 hours, washed with Hank's balanced salt solution (HBSS), adjusted to a cell concentration of 6.7×10^6/mL, and then used in an experiment. (3) 30 μL of the cell suspension and 60 μL of each compound solution containing 0.2% DMSO/HBSS were mixed and then preincubated at 37° C. for 5 minutes. 30 μL of HBSS containing 1.2 μg/mL of MCP-1 was added thereto and then incubated for 60 seconds at 37° C. (4) 30 μL of a cell lysate (the final concentrations: 20 mmol/L Tris-HCl (pH 7.5), 150 mmol/L NaCl, 1 mmol/L EDTA, 1 mmol/L EDTA, 1% Triton X-100, 2.5 mmol/L sodium pyrophosphate, 1 mmol/L β-glycerophosphate, 1 mmol/L Na3VO4, 1 μg/ml leupeptin, 50 nmol/L APMSF) was added thereto to lyse cells. (5) The amount of AKT phosphorylation in the cell solution was measured by sandwich ELISA method using anti-Phospho-Akt (Ser473) antibody and anti-AKT1 antibody. (6) Anti-Phospho-Akt (Ser473) antibodies or anti-AKT1 antibodies were immobilized onto the solid phase of a micro well plate. The prepared cell lysate was added to the micro well plate, incubated, and then washed with ELISA wash solution. (7) An anti-AKT1 antibody or anti-Phospho-Akt (Ser473) antibody, which forms a counterpart to an antibody immobilized on the solid phase, was added thereto, incubated, washed similarly, and then reacted with an HRP-labeled anti-mouse IgG antibody. (8) After incubating for 30 minutes and then washing similarly, 100 μL of TMB (3,3′,5,5″-tetramethylbenzidine) was added thereto, followed by reacting for 30 minutes. (9) 100 μL of stop solution was added to quench the color reaction, and then the absorbance at 450 nm was measured. (10) The amount of AKT phosphorylation in a sample in the absence of a compound was defined as 100% activity, and the amount of AKT phosphorylation in a sample in the absence of MCP-1 was defined as 0% activity to calculate an inhibition ratio of each compound. The measurement was performed for a 1 μmol/L solution of each compound.

CYP3A4 = molecular target: T2, CYP3A4 (Homo sapiens, UniProt P08684); assay: CYP3A4 fluorescence MBI test; assay type: in vitro ADME; settings: difference in IC50 with 0 or 30 minutes pre-reaction; CYP3A4 expressed in E. coli, substrate 7-BFC
T2 construct: host or cells: E. coli
Experimental: The CYP3A4 fluorescence MBI test is a test to examine the enhancement of CYP3A4 inhibition of a compound by a metabolic reaction. The test was performed using as an index, a reaction to produce a metabolite 7-hydroxytrifluoromethylcoumarin (HFC) which emits fluorescence, in which CYP3A4 expressed in E. coli was used as an enzyme and 7-benzyloxytrifluoromethylcoumarin (7-BFC) is debenzylated by CYP3A4 enzyme.
The reaction conditions are as follows: substrate: 5.6 μmol/L 7-BFC; pre-reaction time; 0 or 30 minutes; reaction time: 15 minutes; reaction temperature: 25° C. (room temperature); content of CYP3A4 (an enzyme expressed in E. coli): […] at the time of a pre-reaction and […] (when diluted 10 times) at the time of a reaction; the concentrations of a test drug: 0.625, 1.25, 2.5, 5, 10, and 20 μmol/L (6 points).
In a 96-well plate, an enzyme solution and a test drug solution were added as a pre-reaction solution into K-Pi buffer solution (pH 7.4) in the aforementioned ratio. A portion thereof was transferred to another 96-well plate to be diluted ten times with a substrate and a K-Pi buffer solution. A coenzyme, NADPH, was then added to start a reaction, which is the index (this is without a pre-reaction). After reacting for a predetermined time, 4:1 of acetonitrile: 0.5 mol/L Tris (trishydroxyaminomethane) was added to quench the reaction. To the remaining pre-reaction solution, NADPH was added to start a pre-reaction (this is with a pre-reaction). After pre-reacting for a predetermined time, a portion thereof was transferred to another plate to be diluted ten times with a substrate and K-Pi buffer solution, and thereby the index reaction is started. After reacting for a predetermined time, 4:1 of acetonitrile:0.5 mol/L Tris (trishydroxyaminomethane) was added to quench the reaction. For each plate in which the index reaction was carried out, the fluorescence value of a metabolite 7-HFC was measured with a fluorescent plate reader (Ex=420 nm, Em=535 nm).
The case wherein only DMSO (a solvent which dissolved a drug) was added to a reaction system was defined as a control (100%). When a test drug solution was added, the remaining activity (%) at each concentration was calculated, and then IC50 was calculated with a concentration and an inhibition ratio by an inverse estimation using a logistic model. When the difference in IC50 value is 5 μmol/L or more, the compound is shown as (+). When 3 μmol/L or less, the compound is shown as (−).

[2] = Metabolic stability test (pooled human liver microsome); assay type: in vitro ADME; settings: percentage of test compound remained after 30 minutes, pooled human liver microsome 0.5 mg protein/mL, 1 mmol/L NADPH, 37° C., compound 0.5 μM
Summary of the method: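 Pooled human liver microsomes (0.5 mg protein/mL) incubated with compound and 1 mmol/L NADPH at 37° C. in pH 7.4 Tris buffer for 0 or 30 min. Parent quantified by LC/MS/MS after methanol/acetonitrile quench; value is % remaining at 30 min versus 0 min.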

hERG channel (IKr) = molecular target: T3, hERG channel (IKr) (Homo sapiens, UniProt Q12809); assay: hERG test (whole-cell patch-clamp, IKr in HEK293 cells); assay type: cell-based; settings: human, HEK293 cells expressing hERG channel, pH 7.4, inhibition of maximum tail current (IKr), compound 1 μM
T3 construct: expressed in transfected cells; host or cells: HEK293
From the text: For the purpose of risk evaluation of QT interval extension of electrocardiogram, the activity on delayed rectification K^+ current (IKr), which plays an important role in a cardiac ventricle repolarization process, was examined using the HEK293 cell that was made to express human ether-a-go-go related gene (hERG) channel.
Using an automatic patch-clamp system (PatchXpress 7000A, Axon Instruments Inc.), by a whole-cell patch-clamp method, after the cell was maintained at a membrane potential of −80 mV, IKr induced upon applying depolarizing stimulation of +50 mV for 2 seconds and further applying repolarizing stimulation of −50 mV for 2 seconds was recorded. After generated electric current became stable, a test substance dissolved at an intended concentration in extracellular fluid (137 mmol/L NaCl, 4 mmol/L KCl, 1.8 mmol/L CaCl2.2H2O, 1 mmol/L MgCl2.6H2O, 10 mmol/L glucose, 10 mmol/L HEPES (4-(2-hydroxyethyl)-1-piperazineethanesulfonic acid), pH=7.4) was applied to the cell for 10 minutes under room temperature condition. From the obtained IKr, the absolute value of the maximum tail current was measured using analysis software (DataXpress ver. 1, Molecular Devices Corporation) and the value of the electric current in a maintained membrane potential as baseline. Moreover, an inhibition ratio for the maximum tail current prior to the application of the test substance was calculated and then compared with a group of media-application (0.1% dimethylsulfoxide solution) to evaluate influence of the test substance on IKr.

PI3Kγ [3] = molecular target: T1, PI3Kγ; assay: PI3Kγ inhibitory activity (Ki value); assay type: biochemical; settings: read-out: PI3Kγ Ki value
Experimental: The PI3Kγ inhibitory activity (Ki value) of a compound was evaluated according to the following procedure:
5 μL of a compound solution containing 10% DMSO and […] of a compound was changed to 5 μL of a compound solution containing 10% DMSO and either 200, 64, 20, 6.4, 2, 0.64, or 0.20 μmol/L of the compound (optionally, this is diluted to a lower concentration). Using a method similar to the method for measuring PI3Kγ inhibitory activity, inhibition ratios of PI3Kγ were measured in the presence of the compound at 50, 16, 5, 1.6, 0.5, 0.16, and 0.05 μmol/L (optionally, a lower concentration). Then an IC50 value was calculated by a logistic approximation method or the linear regression method using two concentrations that cross 50% inhibition. Separately, the ATP concentration in the reaction solution (40 μmol/L ATP, 10 mmol/L MgCl2, 5 mmol/L DTT) at the time of the start of a reaction in the absence of the compound was changed to 80, 40, 20, 10, 5, 2.5, 1.25, or 0.625 μmol/L. Then, HTRF ratios were measured by a similar method. The value obtained by subtracting the HTRF ratio at each ATP concentration from the HTRF ratio in the absence of PI-3 kinase y was defined as the value obtained by multiplying reaction rate (v) at each ATP concentration with a constant. The Michaelis-Menten constant Km was then calculated by the Lineweaver-Burk plot method. The Ki value of a compound was calculated by the following formula wherein “μM” denotes “μmol/L.”
Ki value ═IC50 value/(1+test ATP concentration (μM)/Km (μM))

T2 sequence (P08684 whole entry): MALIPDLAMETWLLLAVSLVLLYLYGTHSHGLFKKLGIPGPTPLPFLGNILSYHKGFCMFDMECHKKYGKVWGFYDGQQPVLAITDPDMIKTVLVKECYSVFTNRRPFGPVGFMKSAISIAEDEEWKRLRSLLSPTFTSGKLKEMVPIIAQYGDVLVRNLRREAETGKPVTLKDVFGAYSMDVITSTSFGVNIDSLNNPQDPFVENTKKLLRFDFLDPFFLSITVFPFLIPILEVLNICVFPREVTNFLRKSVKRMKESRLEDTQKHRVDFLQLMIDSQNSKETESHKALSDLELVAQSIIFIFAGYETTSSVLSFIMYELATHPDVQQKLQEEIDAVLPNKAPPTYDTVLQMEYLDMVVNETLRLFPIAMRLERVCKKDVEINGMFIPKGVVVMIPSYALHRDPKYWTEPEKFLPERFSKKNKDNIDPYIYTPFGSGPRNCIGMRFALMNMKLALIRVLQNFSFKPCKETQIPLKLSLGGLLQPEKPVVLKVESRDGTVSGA
T3 sequence (Q12809 whole entry): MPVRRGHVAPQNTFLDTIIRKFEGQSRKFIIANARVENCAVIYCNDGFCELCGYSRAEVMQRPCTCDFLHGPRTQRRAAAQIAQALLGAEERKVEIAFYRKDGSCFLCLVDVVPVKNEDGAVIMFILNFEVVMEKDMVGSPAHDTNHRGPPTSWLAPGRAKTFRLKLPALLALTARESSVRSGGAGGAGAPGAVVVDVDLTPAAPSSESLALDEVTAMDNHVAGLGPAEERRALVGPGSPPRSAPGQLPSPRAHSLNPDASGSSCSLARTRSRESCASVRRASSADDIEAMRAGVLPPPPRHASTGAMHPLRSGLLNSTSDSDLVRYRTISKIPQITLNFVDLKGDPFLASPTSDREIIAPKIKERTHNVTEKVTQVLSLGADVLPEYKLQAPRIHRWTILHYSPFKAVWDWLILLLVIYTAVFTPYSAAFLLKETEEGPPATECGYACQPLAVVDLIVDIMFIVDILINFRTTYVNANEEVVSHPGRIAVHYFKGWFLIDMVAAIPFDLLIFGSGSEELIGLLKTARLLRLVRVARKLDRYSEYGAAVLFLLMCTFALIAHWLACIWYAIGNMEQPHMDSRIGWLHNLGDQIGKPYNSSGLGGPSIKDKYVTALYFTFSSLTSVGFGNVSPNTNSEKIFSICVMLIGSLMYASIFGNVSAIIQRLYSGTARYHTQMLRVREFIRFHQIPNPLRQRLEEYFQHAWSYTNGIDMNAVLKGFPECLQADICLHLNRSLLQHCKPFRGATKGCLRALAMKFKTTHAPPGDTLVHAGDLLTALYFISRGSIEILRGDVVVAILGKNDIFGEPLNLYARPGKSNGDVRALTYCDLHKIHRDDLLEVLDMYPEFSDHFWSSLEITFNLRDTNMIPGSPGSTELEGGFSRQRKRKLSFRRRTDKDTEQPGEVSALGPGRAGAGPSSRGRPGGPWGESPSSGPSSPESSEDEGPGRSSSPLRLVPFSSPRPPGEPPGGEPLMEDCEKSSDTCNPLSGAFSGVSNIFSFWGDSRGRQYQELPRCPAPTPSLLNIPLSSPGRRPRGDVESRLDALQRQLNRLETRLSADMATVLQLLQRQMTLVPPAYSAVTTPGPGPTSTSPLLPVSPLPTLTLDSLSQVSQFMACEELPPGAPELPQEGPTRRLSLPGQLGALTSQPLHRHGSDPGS
T1 sequence (P48736 whole entry, species assumed): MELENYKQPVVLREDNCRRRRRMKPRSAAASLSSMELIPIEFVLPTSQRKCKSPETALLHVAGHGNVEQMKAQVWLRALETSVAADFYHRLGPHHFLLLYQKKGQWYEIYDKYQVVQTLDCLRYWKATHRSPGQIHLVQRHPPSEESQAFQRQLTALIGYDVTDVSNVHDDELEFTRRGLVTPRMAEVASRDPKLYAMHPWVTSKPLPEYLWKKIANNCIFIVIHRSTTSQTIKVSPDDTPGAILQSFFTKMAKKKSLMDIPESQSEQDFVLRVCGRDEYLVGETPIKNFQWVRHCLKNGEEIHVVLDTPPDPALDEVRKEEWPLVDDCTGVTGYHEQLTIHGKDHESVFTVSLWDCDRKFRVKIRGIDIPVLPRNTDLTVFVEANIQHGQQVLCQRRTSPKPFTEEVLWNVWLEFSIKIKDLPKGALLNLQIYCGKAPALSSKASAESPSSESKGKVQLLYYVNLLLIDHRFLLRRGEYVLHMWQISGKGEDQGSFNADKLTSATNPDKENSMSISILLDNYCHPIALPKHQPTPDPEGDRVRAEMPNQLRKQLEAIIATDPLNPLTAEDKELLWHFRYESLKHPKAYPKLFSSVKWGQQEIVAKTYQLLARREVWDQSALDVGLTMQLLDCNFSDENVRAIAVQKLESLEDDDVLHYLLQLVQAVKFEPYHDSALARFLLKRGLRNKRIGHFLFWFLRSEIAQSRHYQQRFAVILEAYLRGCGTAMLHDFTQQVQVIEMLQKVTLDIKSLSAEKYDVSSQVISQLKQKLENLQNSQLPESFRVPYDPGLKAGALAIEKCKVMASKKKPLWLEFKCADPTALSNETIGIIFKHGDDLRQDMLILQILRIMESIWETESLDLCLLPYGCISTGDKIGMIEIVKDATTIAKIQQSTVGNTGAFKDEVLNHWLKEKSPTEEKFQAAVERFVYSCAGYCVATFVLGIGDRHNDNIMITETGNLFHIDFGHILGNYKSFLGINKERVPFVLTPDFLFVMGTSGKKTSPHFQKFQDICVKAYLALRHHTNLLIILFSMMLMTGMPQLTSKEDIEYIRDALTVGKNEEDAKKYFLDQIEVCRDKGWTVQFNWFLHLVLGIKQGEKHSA

inhibition at 10 µM (PI3Kγ [1]) | hLMS_ox(at 0.5 μM) % [2] | Ki (PI3Kγ [3]) | Compound | inhibition at 1 µM (AKT phosphorylation) | MBI (CYP3A4) | inhibition at 10 min, 1 µM (hERG channel (IKr))
93% | – | – | COc1cc(N2CCc3nc(NC(=O)Nc4ccccc4C(=O)NC(C)(C)C)sc3C2)nc(OC)n1 [Compound I-7] | 77.6% | – | –
≥ 95% | 88.4% | – | COc1cc(N2CCc3nc(NC(=O)Nc4ccccc4C(=O)NC4CCCC4O)sc3C2)nc(OC)n1 (centres unmarked) [Compound I-134] | 93% | – | 1.7%
≥ 95% | – | – | COc1cc(N2CCc3nc(NC(=O)Nc4ccccc4C(=O)NC(C)C(F)(F)F)sc3C2)nc(OC)n1 (centres unmarked) [Compound I-136] | 84% | – | –
≥ 95% | 83% | – | [2H]C([2H])([2H])C([2H])(NC(=O)c1ccccc1NC(=O)Nc1nc2c(s1)CN(c1cc(OC)nc(OC)n1)CC2)C([2H])([2H])[2H] [Compound I-153] | ≥ 95% | (−) (When 3 μmol/L or less, the compound is shown as (−)) | –
≥ 95% | 98.7% | – | [2H]C([2H])([2H])[C@@H](CO)NC(=O)c1ccccc1NC(=O)Nc1nc2c(s1)CN(c1cc(OC)nc(OC)n1)CC2 [Compound I-154] | ≥ 95% | – | –
≥ 95% | – | – | COc1cc(N2CCc3nc(NC(=O)Nc4ccccc4C(=O)NC4CCCOC4)sc3C2)nc(OC)n1 (centres unmarked) [Compound I-160] | ≥ 95% | – | –
92% | 91.2% | – | COc1cc(N2CCc3nc(NC(=O)Nc4ccccc4C(=O)NN4CCOCC4)sc3C2)nc(OC)n1 [Compound I-193] | 81% | – | –

Continued, compound first:

Compound | inhibition at 10 µM (PI3Kγ [1]) | hLMS_ox(at 0.5 μM) % [2] | Ki (PI3Kγ [3]) | inhibition at 1 µM (AKT phosphorylation) | MBI (CYP3A4) | inhibition at 10 min, 1 µM (hERG channel (IKr))
COc1cc(N2CCc3nc(NC(=O)Nc4cnccc4OCCC(C)C)sc3C2)nc(OC)n1 [Compound I-97] | ≥ 95% | – | – | 80.4% | (−) (When 3 μmol/L or less, the compound is shown as (−)) | –
COc1cc(N2CCc3nc(NC(=O)Nc4cn(C)nc4C(=O)NC4CCOC4)sc3C2)nc(OC)n1 (centres unmarked) [Compound I-156] | 80% | – | – | ≥ 95% | – | 2.7%
COc1cc(N2CCc3nc(NC(=O)Nc4ccccc4C(=O)NC4CCCCC4O)sc3C2)nc(OC)n1 (centres unmarked) [Compound I-161] | ≥ 95% | – | – | 93% | – | 6.1%
CC(C)NC(=O)c1ccccc1NC(=O)Nc1nc2c(s1)CN(c1cncc(S(C)(=O)=O)c1)CC2 [Compound I-166] | ≥ 95% | – | – | 76% | – | 1.8%
COC(=O)[C@H](CO)NC(=O)c1nn(C)cc1NC(=O)Nc1nc2c(s1)CN(c1cc(OC)nc(OC)n1)CC2 [Compound I-167] | ≥ 95% | – | – | ≥ 95% | – | –
Cc1nc(NC(=O)Nc2ccccc2OCCC(C)C)sc1-c1csc(S(=O)(=O)N(C)CCN(C)C)c1 [Compound I-192] | 94% | – | 480 nM | – | – | –
CC(C)NC(=O)c1nn(C)cc1NC(=O)Nc1nc2c(s1)CN(c1cncc(C#N)c1)CC2 [Compound I-205] | ≥ 95% | – | – | 90% | – | 0.2%
CS(=O)(=O)c1cncc(N2CCc3nc(NC(=O)Nc4ccccc4C(=O)NCC#N)sc3C2)c1 [Compound I-210] | 91% | – | – | 93% | (−) (When 3 μmol/L or less, the compound is shown as (−)) | –
COc1cncc(-c2cc(NC(=O)Nc3ccccc3OCCC(C)C)nn2C)c1 [Compound I-221] | ≥ 95% | – | 680 nM | – | – | –
